According to the NIST ThermoML archive (doi:10.1016/j.tca.2018.11.018):

Columns and labels:
[1] = for Triple point temperature: Crystal 2, DSC
[2] = Molar enthalpy of transition or fusion; conditions: DSC
[3] = xn = mol fraction of the nth substance listed; conditions: 100 kPa, Liquid, x2 = 0; for viscosity: Falling or rolling sphere viscometry; for mass density: Vibrating tube method

CCCC[n+]1ccccc1.[Br-] [1-butylpyridinium bromide]
Conditions | Molar enthalpy of transition or fusion [kcal/mol] | Normal melting temperature [°C]
[1], Crystal 1, DTA | – | 103.68
[2], Crystal 1 | 4.71 | –

CCCC[N+]1(C)CCCCC1.[Br-] [N-butyl-N-methylpiperidinium bromide]
Conditions | Molar enthalpy of transition or fusion [kcal/mol] | Normal melting temperature [°C]
[1], Crystal 1, DTA | – | 240.67
[2], Crystal 2 | 0.0153 | –

Conditions | Triple point temperature [K]
[1] | 339.53

CC[N+]1(C)CCCCC1.[Br-] [N-ethyl-N-methylpiperidinium bromide]
Conditions | Molar enthalpy of transition or fusion [kcal/mol] | Normal melting temperature [°C]
[1], Crystal 1, DTA | – | 109.24
[2], Crystal 1 | 3.94 | –

CCCC[N+](CC)(CC)CC.[Br-] [butyltriethyl ammonium bromide]
Conditions | Molar enthalpy of transition or fusion, Crystal 2 [kcal/mol] | Normal melting temperature, Crystal 1, DTA [°C] | Normal melting temperature, Crystal 1, visual observation [°C]
[1] | – | 216.87 | 217.0
[2] | 2.68 | – | –

Conditions | Triple point temperature [K]
[1] | 444.65

O [water]
Conditions | Normal melting temperature [°C]
[1], Crystal, visual observation | 0.1

O [water] + CCCC[N+]1(C)CCCCC1.[Br-]
[3]
Conditions | mass density [kg/m3] | viscosity [mPa·s]
298.15 K | – | 0.89
303.15 K | – | 0.797
308.15 K | – | 0.719
313.15 K | – | 0.653
318.15 K | 990.1 | 0.596
323.15 K | 987.9 | 0.547
328.15 K | 985.6 | 0.504
333.15 K | 983.2 | 0.466
338.15 K | 980.3 | 0.433
343.15 K | 978.1 | 0.404
348.15 K | 974.8 | 0.378

O [water] + CCCC[N+](CC)(CC)CC.[Br-]
[3]
Conditions | mass density [kg/m3] | viscosity [mPa·s]
298.15 K | – | 0.89
303.15 K | – | 0.797
308.15 K | – | 0.719
313.15 K | – | 0.653
318.15 K | 990.1 | 0.596
323.15 K | 987.9 | 0.547
328.15 K | 985.6 | 0.504
333.15 K | 983.2 | 0.466
338.15 K | 980.3 | 0.433
343.15 K | 978.1 | 0.404
348.15 K | 974.8 | 0.378

O [water] + CCCC[n+]1ccccc1.[Br-]
[3]
Conditions | mass density [kg/m3] | viscosity [mPa·s]
298.15 K | – | 0.89
303.15 K | – | 0.797
308.15 K | – | 0.719
313.15 K | – | 0.653
318.15 K | 990.1 | 0.596
323.15 K | 987.9 | 0.547
328.15 K | 985.6 | 0.504
333.15 K | 983.2 | 0.466
338.15 K | 980.3 | 0.433
343.15 K | 978.1 | 0.404
348.15 K | 974.8 | 0.378

O [water] + CC[N+]1(C)CCCCC1.[Br-]
[3]
Conditions | mass density [kg/m3] | viscosity [mPa·s]
298.15 K | – | 0.89
303.15 K | – | 0.797
308.15 K | – | 0.719
313.15 K | – | 0.653
318.15 K | 990.1 | 0.596
323.15 K | 987.9 | 0.547
328.15 K | 985.6 | 0.504
333.15 K | 983.2 | 0.466
338.15 K | 980.3 | 0.433
343.15 K | 978.1 | 0.404
348.15 K | 974.8 | 0.378
